Assay results reported in patent publication US9890400B2, “Method of production of 2,4-dihydroxybutyric acid” (ADISSEO FRANCE S.A.S., priority 2012, dated 2018).
Changes are numbered by the printed parent chain.

What was measured:
[1] = test system: malic enzyme; conditions: Rognstad & Katz, 1979; cited from earlier work
[2] = molecular target: T1, Metallosphaera sedula succinic semialdehyde reductase (Ms-SSR), wild type, SEQ ID No. 16 (Metallosphaera sedula, UniProt A4YGN0); experiment: Malate semialdehyde reductase activity; type: biochemical; conditions: NADH or NADPH, pH 7.5, 30° C., average of at least two independent experiments
T1 construct: full length 360 aa
T1 sequence (A4YGN0 1-360): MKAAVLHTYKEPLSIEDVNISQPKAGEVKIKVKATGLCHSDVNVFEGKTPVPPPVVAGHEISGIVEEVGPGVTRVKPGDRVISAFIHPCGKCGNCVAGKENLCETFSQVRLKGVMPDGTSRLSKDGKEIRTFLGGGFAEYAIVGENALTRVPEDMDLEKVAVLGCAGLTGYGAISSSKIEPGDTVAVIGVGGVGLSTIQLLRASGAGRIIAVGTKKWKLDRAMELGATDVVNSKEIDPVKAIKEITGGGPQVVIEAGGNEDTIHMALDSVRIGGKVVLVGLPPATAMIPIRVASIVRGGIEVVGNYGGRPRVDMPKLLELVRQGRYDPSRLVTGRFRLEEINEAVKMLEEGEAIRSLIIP
Experimental: To identify a suitable 2,4 DHB dehydrogenase, beta-hydroxyacid dehydrogenases from different biological sources were tested for their ability to reduce malate semialdehyde. […] The genes YPR1, 4hbdh, yqhD, and Ms-SSR were amplified using primers listed in Table 5 and cloned into vector pET28 (restriction enzymes see Table 5) yielding plasmids pET28-Sce-YPR1, pET28-Pgi-4-hbdh, pET28-Eco-yqhd and pET28-Mse-SSR, respectively. The proteins were expressed and purified as described in Example 1.
(§1) Test for Malate Semialdehyde Reductase Activity: (L)-Malate semialdehyde+NAD(P)H→(L)-2,4-dihydroxybutyric acid+NAD(P) Reaction scheme:
(§2) The assay mixture contained 200 mM Hepes (pH 7.5), 50 mM KCl, 5 mM MgCl2, 0.24 mM NADH or NADPH, and appropriate amounts of purified enzyme or cell extract. Reactions were started by adding 10 mM (L)-malate semialdehyde (malate semialdehyde was prepared freshly for each test, see Example 3). Enzymatic assays were carried out at 30° C. in 96-well flat bottomed microtiter plates in a final volume of 250 μL. The reactions were followed by the characteristic absorption of NAD(P)H at 340 nm (εNADPH=6.22 mM^−1 cm^−1) in a microplate reader (BioRad 680XR).

[3] = molecular target: T2, Metallosphaera sedula succinic semialdehyde reductase (Ms-SSR) double mutant H39R N43H, SEQ ID No. 36 (Metallosphaera sedula, UniProt A4YGN0, H39R/N43H); experiment: Malate semialdehyde reductase activity; type: biochemical; conditions: NADH or NADPH, pH 7.5, 30° C., average of at least two independent experiments
T2 sequence (A4YGN0 1-360 H39R/N43H): T1 sequence (A4YGN0 1-360) with H39R, N43H
Experimental: as §1, §2
(§3) Site-directed mutagenesis was carried out using the oligonucleotide pairs listed in Table 6 and the pET28-Mse-SSR plasmid as the template. Point mutations to change the amino acid sequences were introduced by PCR (Phusion 1U, HF buffer 20% (v/v), dNTPs 2.5 mM, direct and reverse primers 1 μM each, template plasmid 200 ng, water). When possible, plasmids created by PCR contained new restriction sites (introduced using silent mutations) in addition to the functional mutation to facilitate identification of mutated clones. The PCR products were digested by DpnI at 37° C. for 2×2 h to remove template DNA, and transformed into NEB DH5-α competent E. coli cells (NEB). The mutated plasmids were identified by restriction site analysis and verified to carry the desired mutations by DNA sequencing.

[4] = molecular target: T3, Metallosphaera sedula succinic semialdehyde reductase (Ms-SSR) mutant H39R, SEQ ID No. 32 (Metallosphaera sedula, UniProt A4YGN0, H39R); experiment: Malate semialdehyde reductase activity; type: biochemical; conditions: NADH or NADPH, pH 7.5, 30° C., average of at least two independent experiments
T3 sequence (A4YGN0 1-360 H39R): T1 sequence (A4YGN0 1-360) with H39R
Experimental: as §1, §2, §3

[5] = molecular target: T4, Metallosphaera sedula succinic semialdehyde reductase (Ms-SSR) mutant N43H, SEQ ID No. 34 (Metallosphaera sedula, UniProt A4YGN0, N43H); experiment: Malate semialdehyde reductase activity; type: biochemical; conditions: NADH or NADPH, pH 7.5, 30° C., average of at least two independent experiments
T4 sequence (A4YGN0 1-360 N43H): T1 sequence (A4YGN0 1-360) with N43H
Experimental: as §1, §2, §3

SMILES | inhibition of malic enzyme [1] | Maximum activity [2] | Maximum activity [3] | Maximum activity [4] | Maximum activity [5]
O=C(O)[C@@H](O)CCO [2,4-DHB, 2,4-dihydroxybutyric acid] | competitive inhibitor | – | – | – | –
O=CC[C@H](O)C(=O)O [malate semialdehyde, (L)-malate semialdehyde] | – | 4.9 μmol/(min * mgprot) | 4.7 μmol/(min * mgprot) | 1.7 μmol/(min * mgprot) | 4.3 μmol/(min * mgprot)
